Common to all, as to assay type: cell-based, human
The test system of one assay is JEG-3 cells. Kind of assay: Annexin V-FITC staining of extracellular phosphatidylserine (apoptosis) in JEG-3 cells. The settings on record: for extracellular annexin-V-reactive phosphatidylserine: 100 nM. On the procedure:
All twelve panels depict either phase contrast (1, 4, 7, 10), confocal laser microscope (2, 5, 8, 11) or phase contrast/confocal merged images (3, 6, 9, 12). Panels 1 to 3 depict untreated control JEG-3 cells for cells in panels 4 to 6 which have been treated with GnRH I (100 nM) for 24 h. All cells have been exposed while live to an annexin V recombinant protein conjugated to the FITC fluorophore. The annexin V will bind specifically only to phosphatidlyserine (PS) lipids usually only expressed on the intracellular side of the plasma membrane lipid bilayer. An early sign of apoptosis is the translocation of these PS lipids from the intracellular side of the membrane to the outer aspect of the bilayer. […] Panels 10 to 12 depict cells exposed to GnRH I for 48 h while panels 7 to 9 serve as unstimulated contemporaneous controls. […] The cellular levels of caspase 3 and procaspase 3 were assessed by specific immunoblotting of JEG-3 or BPH-1 whole cell (w-c) lysates from cells stimulated continuously with GnRH I for the times depicted.
A similar experimental approach was employed for the transfer of this study to BPH-1 cells, however as the MAPK under study in these cells was p38α much lower dose of SB203580 (1 μM) could be employed as the compound has a much greater inhibitory potency against p38 compared to JNK.
Thus we have shown that upon continuous GnRH ligand stimulation of either JEG-3 or BPH-1 there is a retardation of cell growth, however we were interested as to whether there was any genuine induction of cellular apoptosis recently reported to occur in several tumour cell lines (Soon et al (2002) J. Clin. Endocrinol. Metab. 87, 4580-4586). […] Initially we measured the effects of GnRH stimulation upon the ultrastructural integrity of the cells plasma membrane. A well documented early event in apoptosis is a reversal in the polarity of many plasma membrane molecules such as phosphatidylserine (PS). At an early stage of cellular apoptosis there is a significant translocation of PS from the inner to the outer envelope of the plasma membrane. […]

Another assay relates to BPH-1 cells. Kind of assay: Annexin V-FITC staining of extracellular phosphatidylserine (apoptosis) in BPH-1 cells. The settings on record: 48 h. On the procedure:
All twelve panels depict either phase contrast (1, 4, 7, 10), confocal laser microscope (2, 5, 8, 11) or phase contrast/confocal merged images (3, 6, 9, 12). Panels 1 to 3 depict untreated control JEG-3 cells for cells in panels 4 to 6 which have been treated with GnRH I (100 nM) for 24 h. All cells have been exposed while live to an annexin V recombinant protein conjugated to the FITC fluorophore. The annexin V will bind specifically only to phosphatidlyserine (PS) lipids usually only expressed on the intracellular side of the plasma membrane lipid bilayer. An early sign of apoptosis is the translocation of these PS lipids from the intracellular side of the membrane to the outer aspect of the bilayer. […] The cellular levels of caspase 3 and procaspase 3 were assessed by specific immunoblotting of JEG-3 or BPH-1 whole cell (w-c) lysates from cells stimulated continuously with GnRH I for the times depicted. […]
Thus we have shown that upon continuous GnRH ligand stimulation of either JEG-3 or BPH-1 there is a retardation of cell growth, however we were interested as to whether there was any genuine induction of cellular apoptosis recently reported to occur in several tumour cell lines (Soon et al (2002) J. Clin. Endocrinol. Metab. 87, 4580-4586). […] Initially we measured the effects of GnRH stimulation upon the ultrastructural integrity of the cells plasma membrane. […]

The next assay relates to Gαi-type G protein. Put plainly: Inhibition of forskolin-stimulated cAMP accumulation in JEG-3 cells. Particulars: for FSK-stimulated intracellular cAMP accumulation after ligand pre-exposure: 100 nM, pre-exposure 10, 30, 60 minutes; for effect of PTX on ligand-mediated inhibition of FSK-stimulated cAMP accumulation: 60 minute pre-exposure, PTX 200 ng/ml 16 h. The source says: In both BPH-1 and JEG-3 cells GnRH and Ant 135-25 can antagonize forskolin (FSK) stimulated intracellular cAMP accumulation. Panels a and b respectively depict the effects of FSK, GnRH I and Ant 135-25 upon intracellular levels of cAMP in BPH-1 and JEG-3 cells measured using a calorimetric Biomol cAMP assay kit. […] Each histogram in panels a to d depicts the mean±s.e. mean of three to four experimental replicates of the cAMP accumulation assay.
Thus we noted that when cyclic adenosine monophosphate levels (cAMP) were measured using a commercially available […] assay system (Biomol) the ability of forskolin (1 μM in JEG-3 and 3 μM in BPH-1, sufficient to give a 50% Rmax response in each case) was blunted with extended cellular pre-treatment times (10 to 60 minutes) with either 100 nM GnRH I or Ant 135-25 (FIG. 9, panel a-BPH, panel b-JEG). […] Therefore it appears that both ligands can efficiently activate the adenylate cyclase inhibitory activity of Gαi in both cell models tested.

Entries after “also recorded” stand apart in the source; their conditions may differ.

As to `C[S+]([O-])c1ccc(-c2nc(-c3ccncc3)c(-c3ccc(F)cc3)[nH]2)cc1` (stereo not drawn) [SB203580], the “effect on GnRH I-induced annexin V-FITC staining (pro-apoptotic state)” value in the assay with JEG-3 cells (20 μM SB203580 with 100 nM GnRH I, 48 h) was “significant reduction in extent of cells entering a pro-apoptotic state; also recorded: significant reduction in the degree of annexin-V-FITC staining”; in the assay on BPH-1 cells (1 μM SB203580 with GnRH I), “prevented GnRH from inducing a pro-apoptotic state in the BPH-1 cells; also recorded: almost completely abrogated”.
Regarding “Ac-D-Nal(2)-D-4-ClPhe-D-Pal-Ser-1-MePal-D-IsopropylLys-Leu-IsopropylLys-Pro-D-AlaNH2 [Ant 135-25]”, in the assay with Gαi-type G protein, the “FSK-stimulated intracellular cAMP accumulation after ligand pre-exposure” value was “significantly reduced; also recorded: blunted” and the “effect of PTX on ligand-mediated inhibition of FSK-stimulated cAMP accumulation” value is “can be specifically inhibited with a 16 h pre-incubation of the cells with 200 ng/ml of PTX; also recorded: attenuated by a 16 h pre-treatment with 200 ng/ml PTX”.
For “GnRH I: Gonadotropin-Releasing Hormone, a decapeptide; the original form of GnRH, re-named GnRH I”, the “FSK-stimulated intracellular cAMP accumulation after ligand pre-exposure” value in the assay with Gαi-type G protein is reported as “significantly reduced; also recorded: blunted”. The “effect of PTX on ligand-mediated inhibition of FSK-stimulated cAMP accumulation” value with Gαi-type G protein is listed as “can be specifically inhibited with a 16 h pre-incubation of the cells with 200 ng/ml of PTX; also recorded: attenuated by a 16 h pre-treatment with 200 ng/ml PTX”. The “extracellular annexin-V-reactive phosphatidylserine” value is given as “no significant expression of annexin-V-reactive PS on the extracellular surface of the plasma membrane” in the assay with JEG-3 cells (24 h), “significant expression of extracellular annexin-V-reactive PS; also recorded: cells begin to become anti-annexin V-FITC immunoreactive; also recorded: considerable amount of external membrane annexin-V-reactive PS” in the assay on JEG-3 cells (48 h) and “Identical results; also recorded: significant induction of annexin-V-FITC reactivity on the outer plasma membrane envelope” in the assay with BPH-1 cells.

Source of the values: patent US7361633B2, “Screening method and anti-tumor drug candidate obtained therefrom” (Ardana Bioscience Limited, priority 2002, dated 2008).
